One assay concerns the target ROCK2 (Homo sapiens, UniProt O75116). Briefly: ROCK2 kinase IC50 assay (CISBIO HTRF KinEASE-STK S2 kit). It is filed as biochemical. The settings on record: incubated at room temperature for 2 hours. In a few lines: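 HTRF KinEASE-STK S2 format with recombinant ROCK2 (1.4 ng per well), STK-S2 substrate and ATP from 5× working solutions of 1.5 μM each, run 2 h at room temperature. Nine-point dilutions from 10000 nM top concentration; 665/615 nm emission ratio normalised to no-compound and no-kinase controls, curve-fitted for IC50.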

A further assay deals with ROCK1 (Homo sapiens (Human), UniProt Q13464). Nature of the assay: ROCK1 kinase IC50 assay (biological test method similar to the ROCK2 assay). In kind it is biochemical. In a few lines:
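Compound dilution series (9 concentrations, top solution 10000 nM, DMSO-containing buffer) incubated 2 h at room temperature with kinase, STK-S2 substrate and ATP (5× working solutions of 1.5 µM each). Phosphorylation detected by HTRF (665/615 nm emission ratio) after 1 h; inhibition relative to full-reaction and kinase-free wells, fitted for IC50.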

Consider 27 compounds from US11390609B2, “Rho-associated protein kinase inhibitor, pharmaceutical composition comprising same, and preparation method and use thereof” (BEIJING TIDE PHARMACEUTICAL CO., LTD., priority 2017, dated 2022).

Sequence of ROCK1 (Q13464 whole entry, species assumed): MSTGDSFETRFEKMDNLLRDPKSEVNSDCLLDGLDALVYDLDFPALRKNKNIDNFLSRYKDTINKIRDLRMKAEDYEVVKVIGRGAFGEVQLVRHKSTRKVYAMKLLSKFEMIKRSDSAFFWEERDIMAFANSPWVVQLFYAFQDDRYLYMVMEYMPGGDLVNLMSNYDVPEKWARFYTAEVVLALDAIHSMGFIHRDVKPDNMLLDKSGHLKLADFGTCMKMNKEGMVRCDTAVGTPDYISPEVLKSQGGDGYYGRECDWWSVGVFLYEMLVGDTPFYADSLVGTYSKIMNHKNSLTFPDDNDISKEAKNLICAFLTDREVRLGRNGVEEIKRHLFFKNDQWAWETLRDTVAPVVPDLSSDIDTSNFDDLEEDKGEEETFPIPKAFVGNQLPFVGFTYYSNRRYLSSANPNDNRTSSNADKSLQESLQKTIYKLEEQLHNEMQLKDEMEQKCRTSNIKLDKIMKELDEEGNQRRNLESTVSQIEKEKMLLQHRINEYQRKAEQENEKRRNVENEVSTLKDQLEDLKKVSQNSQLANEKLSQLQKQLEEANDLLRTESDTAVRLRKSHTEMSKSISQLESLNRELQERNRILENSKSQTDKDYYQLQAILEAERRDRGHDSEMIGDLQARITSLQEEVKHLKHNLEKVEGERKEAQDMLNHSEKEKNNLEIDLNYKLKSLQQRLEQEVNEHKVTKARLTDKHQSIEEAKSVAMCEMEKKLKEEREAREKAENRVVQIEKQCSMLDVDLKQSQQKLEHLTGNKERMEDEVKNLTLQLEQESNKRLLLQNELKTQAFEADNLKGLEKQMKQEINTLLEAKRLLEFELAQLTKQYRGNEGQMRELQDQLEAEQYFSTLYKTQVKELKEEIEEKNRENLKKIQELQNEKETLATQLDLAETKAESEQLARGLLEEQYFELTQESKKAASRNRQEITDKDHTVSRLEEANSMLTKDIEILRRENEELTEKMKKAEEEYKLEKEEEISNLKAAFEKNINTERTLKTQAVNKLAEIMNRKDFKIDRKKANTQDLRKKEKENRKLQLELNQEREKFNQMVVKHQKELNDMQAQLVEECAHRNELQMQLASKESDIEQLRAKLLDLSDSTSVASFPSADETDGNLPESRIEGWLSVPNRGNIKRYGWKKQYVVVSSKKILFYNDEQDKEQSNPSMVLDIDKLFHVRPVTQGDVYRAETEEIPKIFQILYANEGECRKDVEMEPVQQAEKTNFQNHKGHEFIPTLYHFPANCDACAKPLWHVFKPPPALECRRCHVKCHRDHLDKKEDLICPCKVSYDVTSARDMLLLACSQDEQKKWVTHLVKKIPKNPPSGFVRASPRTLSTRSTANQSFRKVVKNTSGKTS

What is called IC50 is the midpoint of a concentration-inhibition curve. Consider `O=C(OC1CC2(CNC2)C1)N1Cc2ccc(-c3nccc(Nc4ccc(-c5cn[nH]c5)cc4)n3)cc2C1` [TDI01634, 2-azaspiro[3.3]heptan 6-yl 5-(4-((4-(1H-pyrazol-4-yl)phenyl)amino)pyrimidin-2-yl)isoindoline-2-carboxylate], for which the figures for the half-maximal inhibitory concentration (IC50) at ROCK2 and against ROCK1 were 16 nM and 2.04 µM, respectively.

Take `O=C(OC1CCC(F)(F)CC1)N1CCc2cc(-c3nccc(Nc4ccc(-c5cn[nH]c5)cc4)n3)ccc2C1` [TDI01656, 4,4-difluorocyclohexyl 6-(4-((4-(1H-pyrazol-4-yl)phenyl)amino)pyrimidin-2-yl)-3,4-dihydroisoquinoline-2(1H)-carboxylate]: the half-inhibitory concentration (IC50) is 442 nM on ROCK2 and more than 10 µM against ROCK1.

For `COCc1cnc(-c2ccc3cc(C(=O)N4CC(F)(F)C4)n(C)c3c2)nc1Nc1ccc(-c2cn[nH]c2)cc1` [TDI01668, (6-(4-((4-(1H-pyrazol-4-yl)phenyl)amino)-5-(methoxymethyl)pyrimidin-2-yl)-1-methyl-1H-indol-2-yl)(3,3-difluoroazetidin-1-yl)methanone], the concentration for half-maximal inhibition (IC50) at ROCK2 is 42 nM; at ROCK1 it was more than 10 µM.

With `O=C(c1cc2ccc(-c3ncc(F)c(Nc4ccc(-c5cn[nH]c5)cc4)n3)cc2s1)N1CC(F)(F)C1` [TDI01675, (6-(4-((4-(1H-pyrazol-4-yl)phenyl)-amino)-5-fluoro-pyrimidin-2-yl)benzo[b]-thiophen-2-yl)(3,3-difluoroazetidin-1-yl)methanone], the half-inhibitory concentration (IC50) at ROCK2 is 84 nM; against ROCK1 it was more than 10 µM.

With `CC1(C(=O)N2CCc3ccc(-c4nccc(Nc5ccc(-c6cn[nH]c6)cc5)n4)cc3C2)CC(F)(F)C1` [TDI01676, (7-(4-((4-(1H-pyrazol-4-yl)phenyl)amino)pyrimidin-2-yl)-3,4-dihydroisoquinolin-2(1H)-yl)(3,3-difluoro-1-methylcyclobutyl) methanone], the values for the concentration for half-maximal inhibition (IC50) on ROCK2 and against ROCK1 were 242 nM and more than 10 µM, respectively.

In the case of `Cn1c(C(=O)N2CC(F)(F)C2)cc2ccc(-c3ncc(C(F)(F)F)c(Nc4ccc(-c5cn[nH]c5)cc4)n3)cc21` [TDI01681, (6-(4-((4-(1H-pyrazol-4-yl)phenyl)amino)-5-(trifluoromethyl)pyrimidin-2-yl)-1-methyl-1H-indol-2-yl)(3,3-difluoroazetidin-1-yl)methanone], the results for the IC50 on ROCK2 and at ROCK1 were 238 nM and more than 10 µM, respectively.

`O=C(C1CC(F)(F)C1)N1CCc2cc(-c3nccc(Nc4ccc5[nH]ncc5c4)n3)ccc2C1` [TDI01683, (6-(4-((1H-indazol-5-yl)amino)pyrimidin-2-yl)-3,4-dihydroisoquinolin-2(1H)-yl)(3,3-difluorocyclobutyl)methanone]: the IC50 against ROCK2 was 360 nM; at ROCK1, more than 10 µM.

Consider `CC(NC(=O)c1cc2ccc(-c3nccc(Nc4ccc(-c5cn[nH]c5)cc4)n3)cc2n1C)C(F)(F)F` (stereo not drawn) [TDI01691], for which the figures for the IC50 against ROCK2 and against ROCK1 were 6 nM and 0.159 µM, respectively.

Take `COc1cnc(-c2ccc3cc(C(=O)Nc4ccnnc4)[nH]c3c2)nc1Nc1ccc2[nH]ncc2c1` [TDI01813, 6-(4-((1H-indazol-5-yl)amino)-5-methoxy-pyrimidin-2-yl)-N-(pyridazin-4-yl)-1H-indole-2-carboxamide]: the concentration for half-maximal inhibition (IC50) on ROCK2 was 90 nM; against ROCK1, more than 10 µM.

Consider `c1ccc2oc(-c3cc4ccc(-c5nccc(Nc6ccc7[nH]ncc7c6)n5)cc4[nH]3)nc2c1` [TDI01816, N-(2-(2-(benzo[d]oxazol-2-yl)-1H-indol-6-yl]pyrimidin-4-yl)-1H-indazol-5-amine], for which the IC50 was found to be 111 nM against ROCK2 and 6.01 µM at ROCK1.

`c1cc(Nc2ccc(-c3cn[nH]c3)cc2)nc(-c2ccc3cc(-c4nccs4)[nH]c3c2)n1` [TDI01826, N-(4-(1H-pyrazol-4-yl)phenyl)-2-(2-(thiazol-2-yl)-1H-indol-6-yl)pyrimidin-4-amine]: the 50% inhibitory concentration (IC50) against ROCK2 is 75 nM; against ROCK1, more than 10 µM.

For `COc1cc(Nc2ccnc(-c3ccc4cc(C(=O)N(C)C)[nH]c4c3)n2)ccc1-c1cn[nH]c1` [TDI01832, 6-(4-((3-methoxy-4-(1H-pyrazol-4-yl)phenyl)ami-no)pyrimidin-2-yl)-N, N-dimethyl-1H-indole-2-carboxamide], the figures for the IC50 against ROCK2 and against ROCK1 were 167 nM and more than 10 µM, respectively.

As to `O=C(NC1CCCN(c2ccncc2)C1)c1cc2ccc(-c3nccc(Nc4ccc5[nH]ncc5c4)n3)cc2[nH]1` (stereo not drawn) [TDI01840, 6-(4-((1H-indazol-5-yl)amino)-pyrimidin-2-yl)-N-(1-(pyridin-4-yl)piperidin-3-yl)-1H-indole-2-carboxamide], the IC50 against ROCK2 came out at 5 nM; against ROCK1, 0.089 µM.

For `Cn1c(C(=O)Nc2ccncc2Cl)cc2ccc(-c3nccc(Nc4ccc5[nH]ncc5c4)n3)cc21` [TDI01841, 6-(4-((1H-indazol-5-yl)amino)-pyrimidin-2-yl)-N-(3-chloropyridin-4-yl)-1-methyl-1H-indole-2-carboxamide], the IC50 was determined as 11 nM at ROCK2 and 1 µM at ROCK1.

With `CN(C)C(=O)c1cc2ccc(-c3nccc(Nc4ccc(-c5cn[nH]c5)c(F)c4)n3)cc2[nH]1` [TDI01842, 6-(4-((3-fluoro-4-(1H-pyrazol-4-yl)phenyl)ami-no)pyrimidin-2-yl)-N, N-dimethyl-1H-indole-2-carboxamide], the half-maximal inhibitory concentration (IC50) on ROCK2 stood at 120 nM; on ROCK1, 3 µM.

Take `O=C(Nc1ccnnc1)c1cc2ccc(-c3ncc(Cl)c(Nc4ccc5[nH]ncc5c4)n3)cc2[nH]1` [TDI01844, 6-(4-((1H-indazol-5-yl)amino)-5-chloropyrimidin-2-yl)-N-(pyridazin-4-yl)-1H-indole-2-carboxamide]: the IC50 was 370 nM against ROCK2 and more than 10 µM at ROCK1.

On to `Cn1c(C(=O)N2CC(F)(F)C2)cc2ccc(-c3nc(Nc4ccc(-c5cn[nH]c5)cc4)c4c(n3)OCCO4)cc21` [TDI01851, (6-(4-((4-(1H-pyrazol-4-yl)phenyl)amino)-6,7-dihydro-[1,4]dioxino[2,3-d]pyrimidin-2-yl)-1-methyl-1H-indol-2-yl)(3,3-difluoroazetidin-1-yl)methanone], for which the values for the IC50 on ROCK2 and at ROCK1 were 15 nM and more than 10 µM, respectively.

As to `CC(C)NC(=O)N1Cc2ccc(-c3nc(Nc4ccc(-c5cn[nH]c5)cc4)c4occc4n3)cc2C1` [TDI01861, 5-(4-((4-(1H-pyrazol-4-yl)phenyl)amino)furo[3,2-d]pyrimidin-2-yl)-N-isopropylisoindoline-2-carboxamide], the IC50 on ROCK2 is 41 nM; on ROCK1, more than 10 µM.

For the compound `CC(C)NC(=O)c1cc2ccc(-c3nc(Nc4ccc(-c5cn[nH]c5)cc4)c4ccccc4n3)cc2[nH]1` [TDI01862, 6-(4-((4-(1H-pyrazol-4-yl)phenyl)-amino)-quinazolin-2-yl)-N-isopropyl-1H-indole-2-carboxamide], the IC50 against ROCK2 was 382 nM; against ROCK1, more than 10 µM.

As to `CC(C)NC(=O)c1cc2ccc(-c3nc(Nc4ccc(-c5cn[nH]c5)cc4)c4occc4n3)cc2[nH]1` [TDI01864, 6-(4-((4-(1H-pyrazol-4-yl)phenyl)ami-no)furo[3,2-d]pyrimidin-2-yl)-N-isopropyl-1H-indole-2-carboxamide], the IC50 amounted to 30 nM at ROCK2 and 3 µM against ROCK1.

As to `COc1cnc(-c2ccc3cc(C(=O)N(C)CC(F)(F)F)[nH]c3c2)nc1Nc1ccc(-c2cn[nH]c2)cc1` [TDI01868, 6-(4-((4-(1H-pyrazol-4-yl)phenyl)-amino)-5-methoxy-pyrimidin-2-yl)-N-methyl-N-(2,2,2-trifluoroethyl)-1H-indole-2-carboxamide], the IC50 on ROCK2 was 32 nM; against ROCK1, more than 10 µM.

Regarding `c1cnc(-c2cc3ccc(-c4nccc(Nc5ccc(-c6cn[nH]c6)cc5)n4)cc3[nH]2)nc1` [TDI01870, N-(4-(1H-pyrazol-4-yl)phenyl)-2-(2-(pyrimidin-2-yl)-1H-indol-6-yl)pyrimidin-4-amine], the IC50 on ROCK2 was 46 nM; against ROCK1, more than 10 µM.

In the case of `Cn1c(-n2ccnc2)cc2ccc(-c3nccc(Nc4ccc(-c5cn[nH]c5)cc4)n3)cc21` [TDI01876B, 2-(2-(1H-imidazol-1-yl)-1-methyl-1H-indol-6-yl)-N-(4-(1H-pyrazol-4-yl)phenyl)pyrimidin-4-amine], the half-inhibitory concentration (IC50) against ROCK2 was 240 nM; against ROCK1 it was more than 10 µM.

For the compound `c1ccc2sc(-c3cc4ccc(-c5nccc(Nc6ccc7[nH]ncc7c6)n5)cc4[nH]3)nc2c1` [TDI01881, N-(2-(2-(benzo[d]thiazol-2-yl)-1H-indol-6-yl)pyrimidin-4-yl)-1H-indazol-5-amine], the IC50 was 161 nM at ROCK2 and more than 10 µM at ROCK1.

Regarding `O=C(NC1CCCN(c2ccncc2)C1)c1cc2ccc(-c3nccc(Nc4ccc(-c5cn[nH]c5)cc4)n3)cc2[nH]1` (stereo not drawn) [TDI01882, 6-(4-((4-(1H-pyrazol-4-yl)phenyl)-amino)-pyrimidin-2-yl)-N-(1-(pyridin-4-yl)piperidin-3-yl)-1H-indole-2-carboxamide], the IC50 against ROCK2 was determined as 8 nM; against ROCK1, 0.139 µM.

Regarding `O=C(NC1CCN(c2ccncc2Cl)CC1)c1cc2ccc(-c3nccc(Nc4ccc(-c5cn[nH]c5)cc4)n3)cc2s1` [TDI01884, 6-(4-((4-(1H-pyrazol-4-yl)phenyl)-amino)-pyrimidin-2-yl)-N-(1-(3-chloropyridin-4-yl)piperidin-4-yl)benzo[b]-thiophene-2-carboxamide], the values for the IC50 on ROCK2 and on ROCK1 were 26 nM and more than 10 µM, respectively.

With `Cn1c(C(=O)N2CC(F)(F)C2)cc2ccc(-c3nccc(Nc4ccc5[nH]ncc5c4)n3)cc21` [TDI01906, (6-(4-((1H-indazol-5-yl)amino)pyrimidin-2-yl)-1-methyl-1H-indol-2-yl)(3,3-difluoroazetidin-1-yl)methanone], the 50% inhibitory concentration (IC50) was 49 nM against ROCK2 and more than 10 µM on ROCK1.
